According to ChEMBL document CHEMBL5625205, “3-Methoxy-2-phenylimidazo[1,2-b]pyridazines highly active against Mycobacterium tuberculosis and Mycobacterium marinum” (Eur J Med Chem, 2023):
Values after ≈ are worked out from the molar mass of the structure shown. Active and inactive are the calls of the source. The calls are words filed in the database; no cut-off is given here.

Key:
Mycobacterium marinum = test: Antimycobacterial activity against Mycobacterium marinum assessed as inhibition of bacterial growth measured for 5 days by luminometer; format: functional; conditions: 120 h, time 5 day
[1] = system: Mycobacterium tuberculosis; test: Antimycobacterial activity against Mycobacterium tuberculosis H37Ra assessed as inhibition of bacterial growth measured for 5 days by luminometer; format: functional; conditions: 120 h, time 5 day
[2] = system: Mycobacterium tuberculosis; test: Antimycobacterial activity against Mycobacterium tuberculosis H37Ra infected in mouse assessed as reduction in relative light unit in lung at 30 to 300 mg/kg,po administrated once daily for 5 days; format: functional, organism-based; conditions: dose 30-300 mg/kg, time 5.0 day
[3] = Metabolic stability in mouse liver microsomes assessed as intrinsic clearance incubated for 60 mins in presence of NADPH; format: ADME, Microsome; conditions: read-out: CLH
[4] = Kinetic solubility of compound in DMSO at pH 2 incubated for 30 mins by laser nephelometry; format: physicochemical; conditions: read-out: Kinetic_solubility
[5] = Kinetic solubility of compound in DMSO at pH 6.5 incubated for 30 mins by laser nephelometry; format: physicochemical; conditions: read-out: Kinetic_solubility
[6] = Metabolic stability in mouse liver microsomes assessed as half life incubated for 60 mins in presence of NADPH; format: ADME, Microsome
[7] = Octanol-water distribution coefficient, logD of the compound at pH 7.4 by HPLC analysis; format: physicochemical
[8] = system: Mycobacterium tuberculosis; test: Antimycobacterial activity against Mycobacterium tuberculosis H37Ra infected in mouse assessed as reduction in relative light unit in lung at 10 mg/kg,po administrated once daily for 5 days; format: functional, organism-based; conditions: time 5.0 day

## Ic1c(-c2ccccc2)nc2ccc(OCc3ccccc3)nn12
Mycobacterium marinum
  MIC90: > 230 µM
[1]
  MIC90: > 230 µM

## COc1c(-c2ccc(C(F)(F)F)cc2)nc2ccc(N(C)Cc3ccccc3)nn12
Mycobacterium marinum
  MIC90: 12.1 µM (≈ 4.99 µg/mL)
[1]
  MIC90: 6.06 µM (≈ 2.5 µg/mL)

## COc1cccc(CSc2ccc3nc(-c4cccc([N+](=O)[O-])c4)c(OC)n3n2)c1
Mycobacterium marinum
  MIC90: > 230 µM
[1]
  MIC90: > 230 µM

## CN(Cc1ccccc1)c1ccc2nc(-c3ccc(C(F)(F)F)cc3)c(O)n2n1
Mycobacterium marinum
  MIC90: 251 µM (≈ 100 µg/mL)
[1]
  MIC90: > 251 µM

## CCOc1c(-c2ccccc2)nc2ccc(SCc3cccc(OC)c3)nn12
Mycobacterium marinum
  MIC90: 1.28 µM (≈ 0.501 µg/mL)
[1]
  MIC90: 2.55 µM (≈ 0.998 µg/mL)

## COc1c(-c2ccccc2)nc2ccc(Sc3ccccc3)nn12
[1]
  MIC90: 150 µM (≈ 50 µg/mL)

## CN(Cc1ccccc1)c1ccc2nc(-c3ccccc3)c(O)n2n1
Mycobacterium marinum
  MIC90: > 303 µM
[1]
  MIC90: 303 µM (≈ 100 µg/mL)

## COc1cccc(CSc2ccc3nc(-c4ccc(F)cc4F)c(CN(C)C)n3n2)c1
Mycobacterium marinum
  MIC90: 227 µM (≈ 100 µg/mL)
[1]
  MIC90: 227 µM (≈ 100 µg/mL)

## COc1c(C)nc2ccc(Oc3ccccc3)nn12
[1]
  MIC90: > 117 µM

## COc1cccc(CNc2ccc3nc(-c4ccccc4F)c(OC)n3n2)c1
Mycobacterium marinum
  MIC90: 6.61 µM (≈ 2.5 µg/mL)
[1]
  MIC90: 6.61 µM (≈ 2.5 µg/mL)

## COc1c(-c2ccc(F)cc2F)nc2ccc(N(C)Cc3ccccc3)nn12
[2]
  Activity: inactive
Mycobacterium marinum
  MIC90: 0.64 µM (≈ 0.243 µg/mL)
[3]
  microsomal CLint: 215 µL/min/mg
[4]
  solubility kinetic at 0.5 h: 25 µg/mL (≈ 65.7 µM)
[5]
  solubility kinetic at 0.5 h: 1.6 µg/mL (≈ 4.21 µM)
[6]
  half-life: 8 min
[7]
  logD: 4.6
[1]
  MIC90: 0.64 µM (≈ 0.243 µg/mL)

## COc1cccc(CS(=O)(=O)c2ccc3nc(-c4ccc(F)cc4)c(OC)n3n2)c1
Mycobacterium marinum
  MIC90: 234 µM (≈ 100 µg/mL)
[1]
  MIC90: 234 µM (≈ 100 µg/mL)

## COc1c(-c2ccccc2)nc2ccc(SCc3ccccc3)nn12
Mycobacterium marinum
  MIC90: 0.72 µM (≈ 0.25 µg/mL)
[1]
  MIC90: 1.44 µM (≈ 0.5 µg/mL)

## CN(Cc1ccccc1)c1ccc2nc(-c3ccc(Br)cc3)c(O)n2n1
Mycobacterium marinum
  MIC90: > 244 µM
[1]
  MIC90: 244 µM (≈ 99.9 µg/mL)

## COc1cccc(CSc2ccc3nc(-c4ccc(OC)c(OC)c4)c(OC)n3n2)c1
Mycobacterium marinum
  MIC90: > 220 µM
[1]
  MIC90: > 220 µM

## COc1cccc(CNc2ccc3nc(-c4cccc(C(F)(F)F)c4)c(OC)n3n2)c1
Mycobacterium marinum
  MIC90: 9.34 µM (≈ 4 µg/mL)
[1]
  MIC90: 23.3 µM (≈ 9.98 µg/mL)

## COc1cccc(CSc2ccc3nc(-c4ccccc4F)c(OC)n3n2)c1
[2]
  Activity: inactive
Mycobacterium marinum
  MIC90: 0.15 µM (≈ 0.0593 µg/mL)
[1]
  MIC90: 1.26 µM (≈ 0.498 µg/mL)

## COc1cccc(CNc2ccc3nc(-c4ccccc4)c(OC)n3n2)c1
Mycobacterium marinum
  MIC90: 6.94 µM (≈ 2.5 µg/mL)
[1]
  MIC90: 6.94 µM (≈ 2.5 µg/mL)

## COc1c(-c2ccccc2)nc2ccc(SCc3cc(C)on3)nn12
Mycobacterium marinum
  MIC90: 284 µM (≈ 100 µg/mL)
[1]
  MIC90: 284 µM (≈ 100 µg/mL)

## COc1c(-c2ccccc2)nc2ccc(Cl)nn12
[1]
  MIC90: 385 µM (≈ 100 µg/mL)

## CN(Cc1ccccc1)c1ccc2nc(-c3ccccc3F)c(O)n2n1
Mycobacterium marinum
  MIC90: 287 µM (≈ 100 µg/mL)
[1]
  MIC90: 144 µM (≈ 50.2 µg/mL)

## COc1cccc(CSc2ccc3nc(-c4ccc(Cl)c(Cl)c4)c(OC)n3n2)c1
Mycobacterium marinum
  MIC90: > 220 µM
[1]
  MIC90: > 220 µM

## COc1cccc(COc2ccc3nc(-c4ccc(F)cc4)c(OC)n3n2)c1
Mycobacterium marinum
  MIC90: 2.64 µM (≈ 1 µg/mL)
[1]
  MIC90: 2.64 µM (≈ 1 µg/mL)

## COc1ccc(CSc2ccc3nc(-c4ccccc4)c(OC)n3n2)cc1
Mycobacterium marinum
  MIC90: 5.3 µM (≈ 2 µg/mL)
[1]
  MIC90: 5.3 µM (≈ 2 µg/mL)

## COc1c(-c2ccccc2)nc2ccc(N(C)Cc3ccccc3)nn12
Mycobacterium marinum
  MIC90: 1.45 µM (≈ 0.499 µg/mL)
[1]
  MIC90: 2.9 µM (≈ 0.999 µg/mL)

## COc1ccc(-c2nc3ccc(SCc4ccccc4)nn3c2OC)cc1
[1]
  MIC90: > 260 µM

## c1ccc(COc2ccc3nc(-c4ccccc4)cn3n2)cc1
Mycobacterium marinum
  MIC90: > 330 µM
[1]
  MIC90: 332 µM (≈ 100 µg/mL)

## COc1c(-c2cccc(N)c2)nc2ccc(N(C)Cc3ccccc3)nn12
Mycobacterium marinum
  MIC90: 13.9 µM (≈ 5 µg/mL)
[1]
  MIC90: 34.8 µM (≈ 12.5 µg/mL)

## O=c1oc2ccccc2c2nc3ccc(SCc4ccccc4)nn3c12
Mycobacterium marinum
  MIC90: 278 µM (≈ 99.9 µg/mL)
[1]
  MIC90: 278 µM (≈ 99.9 µg/mL)

## COc1cccc(CNc2ccc3nc(-c4ccc(F)cc4)c(OC)n3n2)c1
Mycobacterium marinum
  MIC90: 13.2 µM (≈ 4.99 µg/mL)
[1]
  MIC90: 6.61 µM (≈ 2.5 µg/mL)

## COc1c(-c2ccc(Cl)cc2)nc2ccc(N(C)Cc3ccccc3)nn12
Mycobacterium marinum
  MIC90: 6.6 µM (≈ 2.5 µg/mL)
[1]
  MIC90: 6.6 µM (≈ 2.5 µg/mL)

## COc1c(-c2ccccc2)nc2ccc(OCc3ccccc3)nn12
Mycobacterium marinum
  MIC90: 1.51 µM (≈ 0.5 µg/mL)
[1]
  MIC90: 3.02 µM (≈ 1 µg/mL)

## COc1c(Cc2ccccc2)nc2ccc(SCc3cccc([N+](=O)[O-])c3)nn12
Mycobacterium marinum
  MIC90: 24.6 µM (≈ 10 µg/mL)
[1]
  MIC90: > 245 µM

## Brc1c(-c2ccccc2)nc2ccc(OCc3ccccc3)nn12
Mycobacterium marinum
  MIC90: > 260 µM
[1]
  MIC90: > 260 µM

## CO[C@H]1/C=C/O[C@@]2(C)Oc3c(C)c(O)c4c(O)c(c(/C=N/N5CCN(C)CC5)c(O)c4c3C2=O)NC(=O)/C(C)=C\C=C\[C@H](C)[C@H](O)[C@@H](C)[C@@H](O)[C@@H](C)[C@H](OC(C)=O)[C@@H]1C [RIFAMPIN]
Mycobacterium marinum
  MIC90: 0.24 µM (≈ 0.198 µg/mL)
[8]
  Activity: Active
[1]
  MIC90: 0.073 µM (≈ 0.0601 µg/mL)

## COc1c(-c2ccccc2F)nc2ccc(N(C)Cc3ccccc3)nn12
[2]
  Activity: inactive
Mycobacterium marinum
  MIC90: 0.69 µM (≈ 0.25 µg/mL)
[3]
  microsomal CLint: 405 µL/min/mg
[4]
  solubility kinetic at 0.5 h: 25 µg/mL (≈ 69 µM)
[5]
  solubility kinetic at 0.5 h: < 1.6 µg/mL
[6]
  half-life: 4 min
[7]
  logD: 4.5
[1]
  MIC90: 0.69 µM (≈ 0.25 µg/mL)

## COc1cccc(CSc2ccc3nc(-c4ccc(F)cc4F)c(OC)n3n2)c1
Mycobacterium marinum
  MIC90: 1.21 µM (≈ 0.5 µg/mL)
[1]
  MIC90: 15.1 µM (≈ 6.24 µg/mL)

## COc1ccc(CSc2ccc3nc(-c4ccc(Cl)c(Cl)c4)c(OC)n3n2)cc1
Mycobacterium marinum
  MIC90: > 220 µM
[1]
  MIC90: > 220 µM
